Data taken from PubChem BioAssay AID489006 (Sanford-Burnham Center for Chemical Genomics, 2010).
The source made the active and inactive calls. The rule behind the calls is not given here.

tested on: Jurkat NF-kB reporter, luminescence; assay: Jurkat NF-kB signaling inhibitors – cell-based, luminescence, selectivity assay for B-cell receptor NF-kB inhibitor project, dose response (AID 489006)

| Structure (SMILES) | IC50 |
| --- | --- |
| CSC1CCCCC1(O)CSc1nc2c(cc1C#N)CCCC2 (configuration not stated) | > 80 µM (inactive) |
| N#CC1=C(N)Oc2cc(Nc3ccccc3)ccc2C1c1ccncc1 (configuration not stated) | 60.6 µM (inactive) |
| O=C1CCC2S/C(=C/Nc3ccc(C(F)(F)F)cc3)C(=O)N12 (configuration not stated) | 0.18 µM |
| O=C1CCCc2c1[nH]c1ccc(CN3CCCCC3)cc21 | > 80 µM (inactive) |
| CCN(CC)CCOC(=O)c1ccc(NC(=O)COc2cc(=O)n(CC)c3ccccc23)cc1 | 43.8 µM (inactive) |
| CCN(CC)CCCN=Cc1c(-c2ccccc2)[nH]n(-c2nc3ccccc3s2)c1=O | 7.55 µM |
| CCCCCC/C=C/c1ccc(OC)c([C@H]2[C@H]3C=CC[C@@H](C)[C@@H]3C(=O)N2Cc2ccccc2)c1 | > 80 µM (inactive) |
| O=C(Nc1nc2nc(-c3ccccc3)cc(-c3ccccc3)n2n1)c1ccco1 | 12 µM |
| Cc1ccc(-c2cn(-c3ccccc3)c3[n+]2CCCS3)cc1 | > 80 µM (inactive) |
| COc1ccc(-c2nn(C)c(=O)c3ccccc23)cc1NS(C)(=O)=O | > 80 µM (inactive) |
| CCOc1ccc(-c2nnc(SCC(=O)NC3CC3)o2)cc1 | 54.2 µM (inactive) |
| Cc1cc(C)cc(OCc2nnc(SCC(=O)c3ccccc3)o2)c1 | > 80 µM (inactive) |
| CC(=O)Nc1ccc(Nc2nc(-c3sc(NC(C)=O)nc3C)cs2)cc1 | 8.63 µM |
| CCOC(=O)c1cc2c(=O)n3ccccc3nc2n(CC(C)C)c1=NC(=O)c1c(-c2c(F)cccc2Cl)noc1C | > 80 µM (inactive) |
| CC(C)CN(C(=O)COC(=O)C12CC3CC(CC(C3)C1)C2)c1c(N)n(Cc2ccccc2)c(=O)[nH]c1=O | 13.4 µM |
| COc1ccc(/C=C/c2ccccc2)cc1[C@H]1[C@H]2C=CC[C@@H](C)[C@@H]2C(=O)N1Cc1ccccc1 | > 80 µM (inactive) |
| Cc1c(CCC(=O)N2CCC[C@H]2C(=O)O)c(=O)oc2cc3oc4c(c3cc12)CCCC4 | > 80 µM (inactive) |
| O=S(=O)(c1cnc(Cl)c(Cl)c1)N1CCCc2ccccc21 | 18.6 µM |
| COc1ccc(/C=C2\SC(=S)N(CCC(=O)Nc3ccc(C(=O)O)cc3)C2=O)cc1OC | > 80 µM (inactive) |
| O=C(NCCCN1CCOCC1)c1cc(-c2ccc(Br)cc2)on1 | 59.5 µM (inactive) |
| CN(C)CCCN=Cc1c(-c2ccccc2)[nH]n(-c2nc3ccccc3s2)c1=O | 0.88 µM |
| NC(=O)C1CCN(C(=O)COc2ccc3ccccc3c2Br)CC1 | > 80 µM (inactive) |
| CC(C)Cn1c([N+](=O)[O-])nc2c1c(=O)[nH]c(=O)n2C | 7.23 µM |

| Structure (SMILES) | IC50 |
| --- | --- |
| COc1cccc(/C=C2\SC(=S)N(CCCC(=O)NC3=NCCS3)C2=O)c1 | 25.9 µM (inactive) |
| Cc1noc(C)c1CSc1nc2[nH]ncc2c(=O)n1-c1ccccc1 | 34.3 µM (inactive) |
| C[C@H]1CCC/C=C/[C@@H]2C[C@H](O)C[C@H]2[C@H](O)/C=C/C(=O)O1 | > 80 µM (inactive) |
| CCN(CC(=O)Nc1c(F)cccc1F)C(=O)C1(c2ccccc2)CC1 | > 80 µM (inactive) |
| COc1ccc(-n2ncc3c(N4CCC(C(N)=O)CC4)ncnc32)cc1 | > 80 µM (inactive) |
| CCn1c(=O)c2cc(C(=O)NC(C)C)sc2c2ccccc21 | > 80 µM (inactive) |
| Cc1cc(C)c(CN2CCN(C(=O)Cn3cnc4c(NCc5ccccc5)ncnc43)CC2)c(C)c1 | 69.9 µM (inactive) |
| CC(C)(C)c1ccc(-c2noc(CCC(=O)NCC3CCCO3)n2)cc1 (configuration not stated) | 0.23 µM |
| CC(C)c1[nH]nc2c1C(c1ccco1)C(C#N)=C(N)O2 (configuration not stated) | 40 µM (inactive) |
| CCOc1cc2nc(-c3ccc(OC)c(OC)c3)nc(N3CCOCC3)c2cc1OC | 45.8 µM (inactive) |
| Cc1cc2ccccn2c1C(=O)c1ccc(NN)c([N+](=O)[O-])c1 | > 80 µM (inactive) |
| Cc1ccoc1C(=O)Nc1ccc(CC(=O)O)cc1 | 0.26 µM |
| COc1ccc(-c2ccc(N(C)C)cc2)cc1[C@H]1[C@H]2C=CC[C@@H](C)[C@@H]2C(=O)N1Cc1ccccc1 | > 80 µM (inactive) |
| COC(=O)[C@@]12OC[C@]34[C@H]([C@@H](O)[C@@H]1O)[C@@]1(C)C(=O)C(O[C@@H]5OC(CO)[C@@H](O)[C@@H](O)[C@@H]5O)=C[C@@H](C)[C@@H]1C[C@H]3OC(=O)[C@H](OC(=O)/C=C(\C)C(C)(C)OC(C)=O)[C@@H]24 (some centres not stated) | 0.82 µM |
| Cc1ccc(/C=C2\SC(=S)N(CCCC(=O)Nc3cccnc3)C2=O)cc1 | 6.11 µM |
| Cc1ccc(Sc2cc(NCCCO)c([N+](=O)[O-])c3nonc23)cc1 | > 80 µM (inactive) |
| O=C(Cc1cccc2ccccc12)Nc1ccc(-c2cc3ccccc3oc2=O)cc1 | 14.8 µM |
| COc1ccc(-c2n(Cc3ccccc3)c3ccccc3[n+]2Cc2ccccc2)cc1 | 42.7 µM (inactive) |
| CC(C)(C)c1ccc(-c2noc(CCC(=O)NCc3ccco3)n2)cc1 | 1.13 µM |
| CCn1c(=O)c2cc(C(=O)NCc3cccs3)sc2c2ccccc21 | > 80 µM (inactive) |
| COc1ccc(/C=C2\SC(=S)N(CCCC(=O)NNC(=O)c3ccccc3O)C2=O)cc1 | 0.58 µM |
| COc1cc(-c2nc3ccc(N4CCN(C)CC4)cc3[nH]2)cc(OC)c1OC | > 80 µM (inactive) |
| CC1=CC(C)(C)Nc2ccc(OC(=O)CN3C(=O)c4ccccc4C3=O)cc21 | 1.28 µM |

| Structure (SMILES) | IC50 |
| --- | --- |
| COc1ccc2nc(C)cc(Sc3nc4ccccc4s3)c2c1 | 2.53 µM |
| CC1Cc2ccccc2N1S(=O)(=O)c1cnc(Cl)c(Br)c1 (configuration not stated) | 27.2 µM (inactive) |
| Cc1cc(OCC(=O)N2CCC(C(N)=O)CC2)c2c3c(c(=O)oc2c1)CCCC3 | > 80 µM (inactive) |
| CCn1c(=O)cc(SCC(=O)N2CCN(C)CC2)c2ccccc21 | > 80 µM (inactive) |
| Cc1cc(NC(=O)CCCN2C(=O)/C(=C/c3ccccc3Cl)SC2=S)no1 | 20.4 µM (inactive) |
| Cc1ccc(/C=C2\SC(=S)N(CCCC(=O)Nc3ccc(O)cc3)C2=O)cc1 | 18.9 µM |
| Cc1ccc(C(=O)CSc2nnc(COc3ccccc3)o2)cc1 | > 80 µM (inactive) |
| COc1ccc(NC(=O)c2nnn(Cc3cccc(F)c3)c2N)c(OC)c1 | > 80 µM (inactive) |
| CCSc1ncc(Cl)c(C(=O)Nc2sc3c(c2C(=O)NCc2cccnc2)CCCC3)n1 | > 80 µM (inactive) |
| COc1ccc(S(=O)(=O)Nc2cc3c(C(C)=O)c(C)oc3c3ccccc23)cc1 | > 80 µM (inactive) |
| Cc1cc(N(C)C)ccc1N=Nc1ccc(N)cc1 | > 80 µM (inactive) |
| Cc1cnc(NC(=O)Nc2ccc(Cl)cc2)s1 | > 80 µM (inactive) |
| Cc1nnc2c3ccccc3c(-c3ccccc3)nn12 | > 80 µM (inactive) |
| CCN(CC(=O)Nc1c(F)cccc1F)C(=O)c1cc([N+](=O)[O-])ccc1N1CCCCC1 | > 80 µM (inactive) |
| Cc1ccc(-c2nc(C(=O)NCC3CCCO3)cc3c2[nH]c2ccccc23)cc1 (configuration not stated) | 23.4 µM (inactive) |
| COc1ccc(NC(=O)CN(C)C(=O)C2(c3ccccc3)CCCC2)cc1 | > 80 µM (inactive) |
| Cc1ccccc1-n1c(SCc2c(C)noc2C)nnc1-c1c[nH]c2ccccc12 | > 80 µM (inactive) |
| C=CCOc1ccc(NC(=O)C(=O)NCCCn2ccnc2)cc1 | > 80 µM (inactive) |
| COc1ccc(-c2csc3nc(-c4cccnc4)nc(N4CCC(C(N)=O)CC4)c23)cc1OC | 12.1 µM |
| CCOC(=O)N1CCN(CC(=O)Nc2ccc([N+](=O)[O-])cc2C(=O)Nc2ccccc2F)CC1 | 33.1 µM (inactive) |
| CC(C)(O)/C=C/C(=O)[C@](C)(O)C1[C@H](O)C[C@@]2(C)C3CC=C4C(C[C@H](O)[C@@H](O)C4(C)C)[C@]3(C)C(=O)C[C@]12C (some centres not stated) | 31.3 µM (inactive) |
